From the kinase profiling compilation of Christmann-Franck et al. (2016)

Experiments:
Assay in all cases: KINOMEscan competition binding
Conditions in all cases: compound 10.0 µM
DAPK3 (human) = DAPK3 (human) (UniProt O43293)
PTK2B (human) = PTK2B (human) (UniProt Q14289)
EPHB1 (human) = EPHB1 (human) (UniProt P54762)
PKN3 (M.tuberculosis) = PKN3 (M.tuberculosis) (UniProt Q6P5Z2)
CRK2 (P.falciparum) = CRK2 (P.falciparum) (UniProt P61075)
[1] = test system: FLT3 (human), P36888 [D835H]
MAPK3 (human) = MAPK3 (human) (UniProt P27361)
AAK1 (human) = AAK1 (human) (UniProt Q2M2I8)
MET (human) = MET (human) (UniProt P08581)
FYN (human) = FYN (human) (UniProt P06241)
PIM1 (human) = PIM1 (human) (UniProt P11309)
CDK16 (human) = CDK16 (human) (UniProt Q00536)
MAST1 (human) = MAST1 (human) (UniProt Q9Y2H9)
RPS6KA6 KD1 (human) = RPS6KA6 KD1 (human) (UniProt Q9UK32)
Sequence of RPS6KA6 KD1 (human) (Q9UK32 whole entry, looked up): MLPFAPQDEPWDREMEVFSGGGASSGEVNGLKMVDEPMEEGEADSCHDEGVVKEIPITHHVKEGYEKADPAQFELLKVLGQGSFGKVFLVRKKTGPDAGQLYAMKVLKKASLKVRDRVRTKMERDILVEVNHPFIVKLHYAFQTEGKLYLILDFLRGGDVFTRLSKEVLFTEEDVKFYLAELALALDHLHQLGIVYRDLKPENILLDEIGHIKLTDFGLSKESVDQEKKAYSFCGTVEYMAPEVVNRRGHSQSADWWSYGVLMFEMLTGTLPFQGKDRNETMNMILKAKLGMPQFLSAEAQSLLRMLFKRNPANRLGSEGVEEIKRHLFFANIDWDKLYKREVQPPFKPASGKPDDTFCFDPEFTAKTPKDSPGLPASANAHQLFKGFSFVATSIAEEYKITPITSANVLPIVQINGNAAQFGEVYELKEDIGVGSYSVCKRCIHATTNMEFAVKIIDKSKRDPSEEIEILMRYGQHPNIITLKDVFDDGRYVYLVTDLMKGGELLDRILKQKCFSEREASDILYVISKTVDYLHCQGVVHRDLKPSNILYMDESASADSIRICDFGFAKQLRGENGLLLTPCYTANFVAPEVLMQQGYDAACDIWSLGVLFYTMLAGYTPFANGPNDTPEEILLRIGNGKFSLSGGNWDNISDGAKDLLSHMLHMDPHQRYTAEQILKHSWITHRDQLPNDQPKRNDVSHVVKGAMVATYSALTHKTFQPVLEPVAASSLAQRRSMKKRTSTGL

FRK (human) = FRK (human) (UniProt P42685)
MAP3K5 (human) = MAP3K5 (human) (UniProt Q99683)
STK38L (human) = STK38L (human) (UniProt Q9Y2H1)
MST4 (human) = MST4 (human) (UniProt Q9P289)
GSK3A (human) = GSK3A (human) (UniProt P49840)
MAP3K4 (human) = MAP3K4 (human) (UniProt Q9Y6R4)
Sequence of MAP3K4 (human) (Q9Y6R4 whole entry, looked up): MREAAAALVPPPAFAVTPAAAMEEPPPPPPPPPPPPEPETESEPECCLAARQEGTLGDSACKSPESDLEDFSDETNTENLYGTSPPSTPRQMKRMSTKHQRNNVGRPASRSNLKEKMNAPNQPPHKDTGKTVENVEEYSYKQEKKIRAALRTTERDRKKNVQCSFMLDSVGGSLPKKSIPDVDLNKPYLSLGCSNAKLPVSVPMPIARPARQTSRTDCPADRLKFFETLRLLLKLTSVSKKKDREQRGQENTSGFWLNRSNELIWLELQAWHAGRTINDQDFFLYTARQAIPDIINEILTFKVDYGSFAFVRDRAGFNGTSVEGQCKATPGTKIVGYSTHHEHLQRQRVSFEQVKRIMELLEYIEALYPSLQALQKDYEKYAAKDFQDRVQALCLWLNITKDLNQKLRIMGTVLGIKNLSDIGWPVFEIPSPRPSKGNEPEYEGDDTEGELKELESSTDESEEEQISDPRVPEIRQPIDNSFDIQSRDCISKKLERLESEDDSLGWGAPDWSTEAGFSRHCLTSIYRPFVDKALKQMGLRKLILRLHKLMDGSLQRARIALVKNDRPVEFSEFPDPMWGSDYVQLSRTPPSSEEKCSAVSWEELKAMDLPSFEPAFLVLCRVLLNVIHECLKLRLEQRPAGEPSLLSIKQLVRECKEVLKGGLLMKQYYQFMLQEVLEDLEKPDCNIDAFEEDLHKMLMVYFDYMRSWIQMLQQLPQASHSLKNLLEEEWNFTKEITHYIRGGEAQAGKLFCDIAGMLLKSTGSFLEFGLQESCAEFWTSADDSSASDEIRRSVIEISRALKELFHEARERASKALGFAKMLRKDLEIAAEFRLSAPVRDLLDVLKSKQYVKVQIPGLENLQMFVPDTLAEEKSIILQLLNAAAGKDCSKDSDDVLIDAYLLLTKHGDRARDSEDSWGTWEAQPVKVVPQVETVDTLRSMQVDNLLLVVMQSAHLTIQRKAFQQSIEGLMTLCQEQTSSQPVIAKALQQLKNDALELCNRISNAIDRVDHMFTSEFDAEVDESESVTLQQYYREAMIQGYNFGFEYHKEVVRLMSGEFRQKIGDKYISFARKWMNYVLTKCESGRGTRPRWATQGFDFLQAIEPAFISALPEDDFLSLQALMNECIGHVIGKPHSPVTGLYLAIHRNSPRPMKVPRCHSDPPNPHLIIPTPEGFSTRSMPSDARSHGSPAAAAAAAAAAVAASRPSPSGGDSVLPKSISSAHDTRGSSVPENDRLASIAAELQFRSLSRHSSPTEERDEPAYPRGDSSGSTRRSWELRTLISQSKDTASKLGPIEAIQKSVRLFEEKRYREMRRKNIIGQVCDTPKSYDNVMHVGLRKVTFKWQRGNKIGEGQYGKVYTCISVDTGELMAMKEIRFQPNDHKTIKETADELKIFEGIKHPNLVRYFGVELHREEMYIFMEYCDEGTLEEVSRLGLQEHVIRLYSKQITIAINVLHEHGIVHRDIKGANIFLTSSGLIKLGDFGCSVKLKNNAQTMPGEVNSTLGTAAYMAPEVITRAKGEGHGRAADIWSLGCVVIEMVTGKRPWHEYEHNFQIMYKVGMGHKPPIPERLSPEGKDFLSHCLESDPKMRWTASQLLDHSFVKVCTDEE

ERBB2 (human) = ERBB2 (human) (UniProt P04626)
LYN (human) = LYN (human) (UniProt P07948)
ULK3 (human) = ULK3 (human) (UniProt Q6PHR2)
BLK (human) = BLK (human) (UniProt P51451)
CSNK1G2 (human) = CSNK1G2 (human) (UniProt P78368)
[2] = test system: KIT (human), P10721 [L576P]
PHKG2 (human) = PHKG2 (human) (UniProt P15735)
CDK11B (human) = CDK11B (human) (UniProt P21127)
STK17B (human) = STK17B (human) (UniProt O94768)
MINK1 (human) = MINK1 (human) (UniProt Q8N4C8)
Sequence of MINK1 (human) (Q8N4C8 whole entry, looked up): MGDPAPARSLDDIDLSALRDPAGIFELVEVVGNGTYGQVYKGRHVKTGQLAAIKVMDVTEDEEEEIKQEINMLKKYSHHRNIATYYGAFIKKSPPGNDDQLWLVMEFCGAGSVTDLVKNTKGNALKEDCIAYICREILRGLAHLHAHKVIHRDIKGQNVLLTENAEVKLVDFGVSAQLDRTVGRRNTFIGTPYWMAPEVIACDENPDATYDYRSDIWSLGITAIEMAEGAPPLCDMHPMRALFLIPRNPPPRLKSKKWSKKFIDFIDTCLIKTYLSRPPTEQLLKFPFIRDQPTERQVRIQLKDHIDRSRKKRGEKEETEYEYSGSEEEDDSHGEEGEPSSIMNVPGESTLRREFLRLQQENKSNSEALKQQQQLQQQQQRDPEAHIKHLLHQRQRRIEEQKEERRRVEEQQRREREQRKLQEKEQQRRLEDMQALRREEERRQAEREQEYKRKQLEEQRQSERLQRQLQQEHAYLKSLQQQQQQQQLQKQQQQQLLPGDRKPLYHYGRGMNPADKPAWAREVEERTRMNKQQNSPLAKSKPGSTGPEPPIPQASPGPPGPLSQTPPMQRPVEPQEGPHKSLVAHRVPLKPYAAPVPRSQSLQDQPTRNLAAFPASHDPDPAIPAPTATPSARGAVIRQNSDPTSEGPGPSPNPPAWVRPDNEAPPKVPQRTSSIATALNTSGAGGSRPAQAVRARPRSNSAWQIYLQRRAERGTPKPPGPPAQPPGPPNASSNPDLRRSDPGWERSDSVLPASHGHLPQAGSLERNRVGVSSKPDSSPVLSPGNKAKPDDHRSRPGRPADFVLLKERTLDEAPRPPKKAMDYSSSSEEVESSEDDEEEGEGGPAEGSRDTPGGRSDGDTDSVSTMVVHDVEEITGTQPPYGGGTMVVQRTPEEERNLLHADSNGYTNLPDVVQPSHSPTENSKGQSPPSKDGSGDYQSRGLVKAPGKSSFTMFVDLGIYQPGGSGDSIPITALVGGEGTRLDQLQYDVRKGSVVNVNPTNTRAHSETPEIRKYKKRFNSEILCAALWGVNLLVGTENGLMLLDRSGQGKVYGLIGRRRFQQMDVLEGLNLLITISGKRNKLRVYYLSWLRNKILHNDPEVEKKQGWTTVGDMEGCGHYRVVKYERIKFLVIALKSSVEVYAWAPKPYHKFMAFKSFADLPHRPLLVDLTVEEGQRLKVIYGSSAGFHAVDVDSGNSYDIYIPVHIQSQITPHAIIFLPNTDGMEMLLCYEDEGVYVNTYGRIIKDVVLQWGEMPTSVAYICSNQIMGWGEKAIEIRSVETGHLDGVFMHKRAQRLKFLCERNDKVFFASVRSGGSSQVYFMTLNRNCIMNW

STK32B (human) = STK32B (human) (UniProt Q9NY57)
FGR (human) = FGR (human) (UniProt P09769)
NEK6 (human) = NEK6 (human) (UniProt Q9HC98)
BRSK2 (human) = BRSK2 (human) (UniProt Q8IWQ3)
FES (human) = FES (human) (UniProt P07332)
MAP4K1 (human) = MAP4K1 (human) (UniProt Q92918)
NUAK1 (human) = NUAK1 (human) (UniProt O60285)
PRKG1 (human) = PRKG1 (human) (UniProt Q13976)
CDK13 (human) = CDK13 (human) (UniProt Q14004)
MAP3K6 (human) = MAP3K6 (human) (UniProt O95382)
Sequence of MAP3K6 (human) (O95382 whole entry, looked up): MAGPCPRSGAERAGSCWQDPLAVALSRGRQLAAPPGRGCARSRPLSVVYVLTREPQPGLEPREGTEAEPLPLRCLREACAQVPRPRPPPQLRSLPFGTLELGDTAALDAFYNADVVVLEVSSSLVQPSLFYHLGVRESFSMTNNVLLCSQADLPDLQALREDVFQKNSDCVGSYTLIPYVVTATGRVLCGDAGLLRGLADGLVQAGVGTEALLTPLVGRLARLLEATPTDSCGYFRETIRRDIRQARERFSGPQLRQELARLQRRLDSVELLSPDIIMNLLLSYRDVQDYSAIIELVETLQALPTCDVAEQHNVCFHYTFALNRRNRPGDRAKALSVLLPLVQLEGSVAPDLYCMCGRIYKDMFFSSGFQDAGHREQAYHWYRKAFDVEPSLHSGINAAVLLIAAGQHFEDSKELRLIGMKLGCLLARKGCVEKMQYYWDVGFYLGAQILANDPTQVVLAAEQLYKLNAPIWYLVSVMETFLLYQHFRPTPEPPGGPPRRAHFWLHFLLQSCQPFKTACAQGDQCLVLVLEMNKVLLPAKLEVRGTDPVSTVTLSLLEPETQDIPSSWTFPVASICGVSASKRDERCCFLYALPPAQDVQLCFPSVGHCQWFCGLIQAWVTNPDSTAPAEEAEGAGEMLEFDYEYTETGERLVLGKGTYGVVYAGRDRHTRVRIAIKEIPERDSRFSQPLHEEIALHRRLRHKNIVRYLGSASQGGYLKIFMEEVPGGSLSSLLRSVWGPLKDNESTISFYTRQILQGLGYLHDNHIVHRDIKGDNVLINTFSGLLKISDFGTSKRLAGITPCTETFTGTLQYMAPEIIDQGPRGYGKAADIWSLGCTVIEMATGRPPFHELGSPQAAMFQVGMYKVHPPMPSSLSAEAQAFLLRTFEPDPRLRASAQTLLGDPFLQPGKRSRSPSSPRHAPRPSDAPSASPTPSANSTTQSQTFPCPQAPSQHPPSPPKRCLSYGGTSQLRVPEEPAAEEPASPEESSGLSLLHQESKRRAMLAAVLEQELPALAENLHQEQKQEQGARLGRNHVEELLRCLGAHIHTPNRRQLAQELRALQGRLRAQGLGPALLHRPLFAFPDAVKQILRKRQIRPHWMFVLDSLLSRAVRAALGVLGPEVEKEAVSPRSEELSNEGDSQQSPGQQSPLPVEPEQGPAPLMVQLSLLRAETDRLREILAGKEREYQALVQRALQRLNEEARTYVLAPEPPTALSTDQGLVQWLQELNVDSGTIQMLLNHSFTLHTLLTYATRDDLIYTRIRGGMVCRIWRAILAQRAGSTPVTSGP

| SMILES | kinase still bound, per cent of control (DAPK3 (human)) | kinase still bound, per cent of control (PTK2B (human)) | kinase still bound, per cent of control (EPHB1 (human)) | kinase still bound, per cent of control (PKN3 (M.tuberculosis)) | kinase still bound, per cent of control (CRK2 (P.falciparum)) | kinase still bound, per cent of control [1] | kinase still bound, per cent of control (MAPK3 (human)) | kinase still bound, per cent of control (AAK1 (human)) | kinase still bound, per cent of control (MET (human)) | kinase still bound, per cent of control (FYN (human)) | kinase still bound, per cent of control (PIM1 (human)) | kinase still bound, per cent of control (CDK16 (human)) | kinase still bound, per cent of control (MAST1 (human)) | kinase still bound, per cent of control (RPS6KA6 KD1 (human)) | kinase still bound, per cent of control (FRK (human)) | kinase still bound, per cent of control (MAP3K5 (human)) | kinase still bound, per cent of control (STK38L (human)) | kinase still bound, per cent of control (MST4 (human)) | kinase still bound, per cent of control (GSK3A (human)) | kinase still bound, per cent of control (MAP3K4 (human)) | also measured |
| --- | --- | --- | --- | --- | --- | --- | --- | --- | --- | --- | --- | --- | --- | --- | --- | --- | --- | --- | --- | --- | --- |
| O=C1NC(=O)/C(=C/c2ccc3nccc(-c4ccncc4)c3c2)S1 | 0.6% | 86% | 90% | 36% | 93% | 31% | 100% | 1% | 32% | 94% | 1% | 71% | 83% | 45% | 81% | 58% | 100% | 90% | 71% | 96% | kinase still bound, per cent of control (ERBB2 (human)): 66%; kinase still bound, per cent of control (LYN (human)): 92%; kinase still bound, per cent of control (ULK3 (human)): 39%; kinase still bound, per cent of control (BLK (human)): 77%; kinase still bound, per cent of control (CSNK1G2 (human)): 0.05%; kinase still bound, per cent of control [2]: 34%; kinase still bound, per cent of control (PHKG2 (human)): 6%; kinase still bound, per cent of control (CDK11B (human)): 95%; kinase still bound, per cent of control (STK17B (human)): 0.6%; kinase still bound, per cent of control (MINK1 (human)): 49%; kinase still bound, per cent of control (STK32B (human)): 100%; kinase still bound, per cent of control (FGR (human)): 69%; kinase still bound, per cent of control (NEK6 (human)): 81%; kinase still bound, per cent of control (BRSK2 (human)): 91%; kinase still bound, per cent of control (FES (human)): 100%; kinase still bound, per cent of control (MAP4K1 (human)): 26%; kinase still bound, per cent of control (NUAK1 (human)): 100%; kinase still bound, per cent of control (PRKG1 (human)): 75%; kinase still bound, per cent of control (CDK13 (human)): 95%; kinase still bound, per cent of control (MAP3K6 (human)): 96% |
| CN(C)C/C=C/C(=O)Nc1ccc(C(=O)Nc2cccc(Nc3nccc(-c4cccnc4)n3)c2)cc1 | 62% | 100% | 100% | 84% | 100% | 28% | 100% | 5.2% | 100% | 100% | 95% | 91% | 100% | 51% | 100% | 100% | 100% | 100% | 26% | 71% | kinase still bound, per cent of control (ERBB2 (human)): 97%; kinase still bound, per cent of control (LYN (human)): 100%; kinase still bound, per cent of control (ULK3 (human)): 88%; kinase still bound, per cent of control (BLK (human)): 100%; kinase still bound, per cent of control (CSNK1G2 (human)): 100%; kinase still bound, per cent of control [2]: 0.35%; kinase still bound, per cent of control (PHKG2 (human)): 56%; kinase still bound, per cent of control (CDK11B (human)): 91%; kinase still bound, per cent of control (STK17B (human)): 19%; kinase still bound, per cent of control (MINK1 (human)): 50%; kinase still bound, per cent of control (STK32B (human)): 100%; kinase still bound, per cent of control (FGR (human)): 86%; kinase still bound, per cent of control (NEK6 (human)): 2.8%; kinase still bound, per cent of control (BRSK2 (human)): 88%; kinase still bound, per cent of control (FES (human)): 99%; kinase still bound, per cent of control (MAP4K1 (human)): 100%; kinase still bound, per cent of control (NUAK1 (human)): 61%; kinase still bound, per cent of control (PRKG1 (human)): 100%; kinase still bound, per cent of control (CDK13 (human)): 86%; kinase still bound, per cent of control (MAP3K6 (human)): 86% |
